Measured values from patent US4829086A, “Soft β-adrenergic blocking agents” (priority 1985, dated 1989).
Structures can show the parent of a compound that is named as a salt. Where two headings read alike, the source gives them in different places.

Tests used:
[1] = Hydrolytic rate in 0.01 N aqueous sodium hydroxide, pH 12.0; type: physicochemical; conditions: for Observed pseudo first order hydrolytic rate constant k: 0.01 N NaOH, ± SEM; for Observed pseudo first order hydrolytic rate constant k / half-life: pH 12.0, ionic strength 0.10 M (NaCl), 27.3 ± 0.2° C.; for half-life: 0.01 n naoh, pH 12, 0.01 N NaOH, read-out: Half-life t1/2
Procedure: (§1) Analytical Methods. A high pressure liquid chromatography (HPLC) method was developed for the determination of the rate constants. The chromatographic analysis was performed in a system consisting of Waters Associates Model 600-A Solvent Delivery System, Model U-6K Injector and Model 440 Dual Channel Absorbance Detector operated at 254 and 280 nm. A 30 cm×3.9 mm (internal diameter) reverse phase μBondpack C18 column (Waters Associates), operated at ambient temperature, was used for all separations. When plasma samples were analyzed, the column was protected with a 2.3 cm×3.9 mm (internal diameter) Guard Column (Waters) packed with μBondpack C18/Corasil packing material. The mobile phase used for the separation of 17 and its degradation product, 5, consisted of water, 1-hexane sulfonic acid in acetic acid (B-6 reagent, Waters), 0.1M triethanolamine and methanol (100:1:100:799). […] For the separation of compounds 10-16 and 18 and their degradation product 5, a mobile phase consisting of water, 1-hexane sulfonic acid in acetic acid (B-6 reagent, Waters), 0.1M triethanolamine and methanol (390:1:10:599) was used.
(§2) Determination of the Hydrolytic Rate Constants in Aqueous Solutions. A 0.01M phosphate buffer and 0.01N sodium hydroxide solution were prepared from freshly distilled deionized water. This ionic strength was maintained at 0.1M with sodium chloride. The pH of the phosphate buffer was determined at 37.0° C. with a pH meter standardized at this temperature. For determination of the hydrolytic rate constants, a fresh concentrated solution of the ester in methanol was added to the hydrolytic medium previously equilibrated to the desired temperature and mixed thoroughly to result in an initial concentration of about 5×10^-4 mol. liter^-1. All reactions were run under pseudo first order conditions. Samples of 25 μL were injected into the column at various time intervals and the pseudo first order rate constants were determined from disappearance of the compound by linear regression of natural logarithm of the peak height versus time plots. The half-life and standard error of the rate constant were calculated for each run.

[2] = Enzymatic hydrolytic cleavage in human plasma; type: in vitro ADME; conditions: for Observed first order hydrolytic rate constant k: ± SEM; for half-life at 1000 µM: human, plasma; for hydrolysis in human plasma: three hours where stated
Procedure: as §1, §2
Determination of the Enzymatic Hydrolytic Cleavage Rates in Human Plasma. The freshly collected plasma used was obtained from the Civitan Regional Blood Center, Inc. (Gainesville, Fla.) and contained about 80% plasma diluted with anticoagulant citrate phosphate dextrose solution, U.S.P. The plasma was stored in a refrigerator and used within one week from the date it was collected.
A portion of 50 μL of a freshly prepared solution of the compound in methanol was added to 10 mL plasma, previously equilibrated at 37.0° C. in a water bath, and mixed thoroughly to result in an initial concentration of 1×10^-3 mol. liter^-1. One mL samples of plasma were withdrawn from the test medium, mixed immediately with 4.0 mL ice cold 95% v/v ethanol, centrifuged and the supernatant analyzed by HPLC. The first order hydrolytic rate constant was determined as before in the aqueous solutions and the results are listed in TABLE II below.

[3] = tested on: heart rate response to isoproterenol (β-adrenergic); test: Cardiovascular experiments in dogs: blockade of isoproterenol heart rate response; type: in vivo, mongrel dogs; conditions: for Duration, Mean (time at which response to isoproterenol had returned to control levels) / Duration, Range (time at which response to isoproterenol had returned to control levels) / Maximal blockade, Mean (time necessary to reach maximal blockade) / Maximal blockade, Range (time necessary to reach maximal blockade): 1 mg/kg i.v.; for Maximal blockade, Mean (time necessary to reach maximal blockade) / Maximal blockade, Range (time necessary to reach maximal blockade): 15 minute measurements
Procedure: Method. Healthy, mongrel dogs were anesthetized with a combination of morphine sulfate (2.0 mg/kg, subcutaneously) followed in 20 minutes with pentabarbital sodium (15 mg/kg, intravenously). Supplemental pentabarbital was given as necessary. A femoral vein was catheterized with polyethylene tubing to the level of the heart for injecting drug solutions. A polyethylene tube filled with heparinized saline was inserted through the femoral artery and advanced to the thoracic aorta for the measurement of arterial pressure. The left carotid artery was cannulated with a Millar® transducer-tip catheter for measurement of left ventricular pressure (LVP). The rising slope of the LVP signal was differentiated to give dP/dt, an estimate of myocardial contractility. Heart rate was determined via a Grass cardiotachometer triggered by the R wave of the lead II EKG. All variables were recorded on a Grass polygraph.
Dose-response curves were constructed for each experimental variable to graded i.v. doses of the β-adrenergic agonist, isoproterenol. A period of 3-5 minutes was allowed after each injection for variables to return to base-line. Following this, one of the four experimental β-adrenergic blocking agents was given i.v. over a one-minute period. Abbreviated dose-response curves (2-3 dose points) were again constructed to isoproterenol at 15, 30, 45, 60, 75 and 90 minutes after the administration of the test blockers. Using a 50-beat per minute (bpm) increase in heart rate as criteria, the degree of blockade was determined by dividing the dose of isoproterenol needed to produce a 50 bpm increase at various times following administration of an antagonists by the dose needed for this effect during the control period. The doses of the experimental β-adrenergic antagonists given were determined from previous experiments to produce an approximate two- or four-fold blockade of the heart rate response to isoproterenol.

[4] = tested on: heart rate response to isoproterenol (β-adrenergic); test: Heart rate response to isoproterenol in rats (initial drug screening); type: in vivo, male Spraque-Dawley rats; conditions: 6 mg/kg i.p.; for resting heart rate prior to administration of isoproterenol: mean ± SEM
Text: (§3) Initial Drug Screening Protocol. Thirty-two male Spraque-Dawley rats (Blue Spruce Farms) initially weighing 300-450 gm were divided into seven different groups, each for a different drug to be tested: 12(n=4), 14(n=4), 17(n=5), 13(n=4) and 18(n=3), corresponding to the designated compounds 12, 14, 17, 13 and 18 (number of animals), respectively. The other two groups were controls (n=8, isoproterenol alone pretreated with carrier) and those treated with a known β-blocker, dl-propranolol (n=3). Ech animal was anesthetized with sodium pentobarbital (45 mg/kg) and the carotid artery was cannulated with PE-50 tubing. The cannula was subcutaneously threaded around the neck and exteriorized dorsally between the shoulder blades. Th cannula was filled with a heparin solution (300 μg/mL) and sealed with a solid 22 gauge stylet. The animals were housed in individual stainless steel cages, and two days were allowed for recovery from the surgery. Food and water were provided ad libitum. On the day of the experiment, the blood pressure and heart rate of each rat were monitored with a pressure transducer (Narco-Bio model P-1000) and the data recorded on a four-channel physiograph (Narco-Bio systems Marck IV). One hour was allowed as an equilibration period before any drugs were administered. All beta blockers were administered intraperitoneally at a dose of 6 mg/kg. Compounds 12 and 14 and dl-proranolol were dissolved in normal saline while compounds 13, 17 and 18 were dissolved in an ethanol: water solution (3:1). Depending on the trial, controls were administered the appropriate carrier. One hour after administration of the blocker, isoproterenol (Isuprel®, Wintrop Laboratories) was administered subcutaneously at a dose of 25 μg/kg. Blood pressures and heart rate also were recorded 3, 5, 10, 15, 20, 30, 45 and 60 minutes after isoproterenol administration. Both control and experimental animals were unrestrained and free moving in their home cage throughout the experiment. […] However, significant differences in the mean heart rate response amoung the 7 groups were observed: *p<0.005;**p<0.025. Comparisons between groups were made by the Newman-Keuls procedure with significance set at the 95% confidence interval. […] All data are shown as mean±standard error of the mean.

[5] = tested on: blood pressure response to isoproterenol; test: Blood pressure response to isoproterenol in rats; type: in vivo, male Spraque-Dawley rats; conditions: 6 mg/kg i.p.
Text: as §3
Symbols are the same as those described for FIG. 1. […] Data are shown as mean±standard error of the mean.

[6] = 37.0 ± 0.1° C., read-out: Half-life t1/2

Row | Observed pseudo first order hydrolytic rate constant k [1] | half-life [1] | Observed first order hydrolytic rate constant k ([2]; 37.0 ± 0.1° C.) | half-life at 1000 µM [2, 6] | SMILES | Duration, Mean (time at which response to isoproterenol had returned to control levels) [3] | Duration, Range (time at which response to isoproterenol had returned to control levels) [3] | Maximal blockade, Mean (time necessary to reach maximal blockade) [3] | Maximal blockade, Range (time necessary to reach maximal blockade) [3] | resting heart rate prior to administration of isoproterenol [4] | further results
1 | 0.117 ± 0.001 min⁻¹ | 5.91 min | 0.238 ± 0.010 min⁻¹ | 2.91 min | CCOC(=O)Cc1ccc(OCC(O)CNC(C)C)cc1 (centres unmarked) [Compound 10, Ethyl 4-(2-hydroxy-3-isopropylamino)-propoxyphenylacetate] | ~ 50 min | 45 to 60 min | 15 min | 15-15 min |  | 
2 |  |  |  |  | CC(C)NCC(O)COc1cccc2ccccc12 (centres unmarked) [propranolol, reference compound] |  |  |  |  |  | mean heart rate response to isoproterenol, comparison between groups ([4]; 1 hour before isoproterenol 25 μg/kg s.c., Newman-Keuls, first 20 minutes (17) or first 30 minutes (propranolol)): significantly different for the first 30 minutes; mean heart rate response to isoproterenol vs groups treated with compound 12 and 18 ([4]; 10 through 45 minutes following isoproterenol): significantly different than the groups treated with compound 12 and 18
3 |  |  | 1.64 ± 0.14 × 10^-2 min^-1 | 42.2 min | CC(C)NCC(O)COc1ccc(CC(=O)OC2C(C)CCCC2C)cc1 (centres unmarked) [Compound 16, 2,6-Dimethylcyclohexyl 4-(2-hydroxy-3-isopropylamino)propoxyphenylacetate oxalate hydrate] | ~ 65 min | 45 to 90 min | 38 min | 15 to 60 min |  | hydrolysis kinetics ([1]; pH 12, 1:2 mixture of two isomers): biphastic kinetics; hydrolysis in human plasma ([2]; 37.0 ± 0.1° C., oxalate hydrate): did not hydrolyze in the plasma within 3 hours; duration of action ([3]; i.v.): much more variable and generally longer
4 | 7.19 ± 0.04 × 10^-2 min^-1 | 9.64 min | 0.351 ± 0.019 min⁻¹ | 1.98 min | CCCCOC(=O)Cc1ccc(OCC(O)CNC(C)(C)C)cc1 (centres unmarked) [Compound 18, n-Butyl 4-(2-hydroxy-3-tert-butylamino)propoxyphenylacetate oxalate hydrate] |  |  |  |  | 307±7 beat/minute | hydrolysis in human plasma ([2]; 37.0 ± 0.1° C.): did not affect the hydrolysis rates
5 | 9.27 ± 0.07 × 10^-2 min^-1 | 7.48 min |  |  | CCCCOC(=O)Cc1ccc(OCC(O)CNC(C)C)cc1 (centres unmarked) [Compound 13, n-Butyl 4-(2-hydroxy-3-isopropylamino)propoxyphenylacetate] |  |  |  |  | 340±14 beat/minute | control of heart rate 60 minutes after administration ([4]; FIG. 1): effectively control the heart rate; half-life at 1000 µM ([2]; read-out: in vitro plasma half-life): ~1 min; mean change in blood pressure vs propranolol and compound 12-treated groups ([5]; isoproterenol 25 μg/kg s.c., FIG. 3): significantly lower (p<0.15); mean change in blood pressure at 10 minutes vs compound 12-treated group ([5]; 10 minutes after isoproterenol): different from the compound 12-treated group; mean change in blood pressure at 10 minutes vs compound 18 group ([5]; 10 minutes after isoproterenol): significantly different from the group treated with compound 18; mean change in blood pressure at 15 minutes vs compound 12, 18 and control vehicle ([5]; 15 minutes after isoproterenol): significantly different from groups pretreated with compound 12, 18 and the control vehicle
6 | 4.96 ± 0.03 × 10^-2 min^-1 | 14 min | 1.46 ± 0.15 min⁻¹ | 0.47 min | CC(C)NCC(O)COc1ccc(CC(=O)OC2CCCCC2)cc1 (centres unmarked) [Compound 15, Cyclohexyl 4-(2-hydroxy-3-isopropylamino)propoxyphenylacetate oxalate 3/4 hydrate] | ~ 85 min | 75 to 90 min | 20 min | 15 to 30 min |  | half-life at 1000 µM ([2]; shortest, read-out: plasma hydrolytic half-life): < 1 min; duration of action ([3]; i.v.): longest duration of action; time after administration at which antagonism dissipated / heart rate responsiveness returned to control ([3]; i.v.): approximately 90 minutes; β1-antagonist activity / blocking of cardiac effects of isoproterenol ([3]; i.v., FIG. 4): most potent in blocking the cardiac effects of isoproterenol
7 | 2.07 ± 0.03 × 10^-2 min^-1 | 33.5 min | 0.414 ± 0.001 × 10^-2 min^-1 | 167 min | CC(C)NCC(O)COc1ccc(CC(=O)OC(C)C)cc1 (centres unmarked) [Compound 12, Isopropyl 4-(2-hydroxy-3-isopropylamino)propoxyphenylacetate] |  |  |  |  | 345±19 beat/minute | hydrolyzed up to x times more slowly than many of the other esters [2]: up to 100 times
8 |  |  |  |  | CC(C)NCC(O)COc1cccc2ccccc12 (racemic) [d,l-propranolol, dl-propranolol, reference compound] |  |  |  |  | 320±23 beat/minute | 
